Experimental data from the NIST ThermoML archive (doi:10.1021/acs.jced.9b00411).
Numbers after ± are expanded uncertainties.

Conditions: Crystal; DSC

Triple point temperature: 437.78 ± 1.2 K
SMILES: Nc1ccc(S(N)(=O)=O)cc1 [4-aminobenzenesulfonamide]
